Data as given in ChEMBL document CHEMBL5724558, “Image-based profiling of drug vulnerabilities in CRC organoids” (2024).
“And” between values parts separate entries of the source, which are not always exact repeats. Equal values may be shown once.

Tests used:
Type in all cases: functional, Homo sapiens
Set-up in all cases: dose or concentration left out as unconfirmed
Colon cancer organoid [1] = experiment: (§1) Image-based profiling of donated chemical probes and chemogenomic kinase set in O21 CRC organoid. Image analysis is performed on the sum area metric, and the data were normalized to the DMSO control. After imaging the organoid viability is measured using the OneGloEX Luciferase Assay System. The normalized viability data and sum area are reported.
Colon cancer organoid [2] = experiment: as §1, with “O06” for “O21”
Colon cancer organoid [3] = experiment: as §1, with “O09” for “O21”

SMILES	Cell Viability (Colon cancer organoid [1]; Replication number 1)	Cell Viability (Colon cancer organoid [1]; Replication number 2)	Cell Viability (Colon cancer organoid [2]; Replication number 1)	Cell Viability (Colon cancer organoid [2]; Replication number 2)	Cell Viability (Colon cancer organoid [3]; Replication number 1)	Cell Viability (Colon cancer organoid [3]; Replication number 2)
C[C@H](NC(=O)c1cnc2n1[C@](C)(Cc1ccc(C#N)cc1)C(=O)N2c1cc(Cl)c(F)c(Cl)c1)C(=O)NC1(c2ccccn2)CC1 [BI 1950]	97.6765% and 100.712%	88.7319% and 89.7959%	114.343% and 119.672%	141.649% and 119.396%	132.005% and 114.441%	125.066% and 107.777%
Cc1cc(C)cc([C@@H]2c3cc(C)ccc3NC(=O)CN2C(=O)c2ccc(Br)s2)c1	115.521% and 108.165%	94.8359% and 62.8282%	111.534% and 83.1141%	141.021% and 89.6176%	106.396% and 98.9954%	263.199% and 111.182%
Cn1cc(Cl)c2c(Oc3c(F)cc(Nc4cc(Cl)nc(N)n4)cc3F)ccnc21 [BAY-4900]	120.472% and 95.4893%	100.602% and 97.8926%	133.628% and 127.773%	114.004% and 114.608%	73.6043% and 111.604%	79.5869% and 90.6027%
Clc1cccc(-c2nnnn2Cc2cccnc2)c1Cl	103.002% and 95.4722%	106.874% and 109.184%	110.934% and 130.913%	90.04% and 81.9662%	192.597% and 128.776%	120.929% and 99.0142%
CN(C)C(=O)/C(C#N)=C/c1ccc(-c2nc3cnc4[nH]ccc4c3n2C2CCCCC2)o1	101.13% and 96.3421%	107.991% and 97.4755%	174.281% and 154.216%	123.709% and 122.376%	104.012% and 103.69%	101.367% and 106.659%
CCc1cccc(CC)c1NC(=O)c1nn(C)c2c1CCc1cnc(Nc3ccc(C(=O)NC4CCN(C)CC4)cc3OC(F)(F)F)nc1-2	41.8512% and 75.8188%	49.725% and 74.2713%			78.2687% and 77.2947%	115.279% and 90.9735%
CN(C)[C@@H]1CCN(c2cc(-c3ccccc3)nc3ccnn23)C1 [(R)-ZINC-3573]	105.256% and 112.95%	102.245% and 84.1264%	99.7285% and 119.514%	116.173% and 112.206%	69.8572% and 93.5976%	61.7883% and 100.515%
Cc1ccc2[nH]c(CNCCCc3ccncc3)cc(=O)c2c1 [UCSF924NC]	94.0995% and 104.765%	78.5864% and 74.4392%	91.5293% and 106.883%	122.187% and 128.063%	130.653% and 96.5987%	94.8728% and 93.7748%
Cc1c(Nc2ccc(S(=O)(=O)N3CCN(C)CC3)cc2F)nc2ccc(Nc3cnn(C4CC4)c3)cn2c1=O	116.907% and 92.8805%	82.2867% and 96.1217%	183.611% and 128.295%	165.181% and 157.488%	89.3145% and 89.49%	245.21% and 122.015%
Cc1ccc(C(=O)Nc2cccc(C(F)(F)F)c2)cc1Nc1nc(-c2cccnc2)nc2c1cnn2C	58.179% and 60.2091%	55.1529% and 56.0201%	111.788% and 111.949%	93.5249% and 94.6015%	119.681% and 88.2655%	229.025% and 116.079%
O=C(O)c1ccc(-c2coc3ncc(-c4ccccc4)cc23)cc1Cl	190.076% and 113.91%	188.696% and 75.9402%	151.185% and 107.979%	124.809% and 78.3539%	308.758% and 113.836%	206.023% and 93.0484%
CCn1cc(-c2ccnc3[nH]c(-c4cccc(CN(C)C)c4)cc23)c(-c2ccc(NC(=O)N(C)C)cc2)n1 [GSK-1070916]	76.6328% and 71.3589%	81.5265% and 81.1803%			22.2316% and 23.9614%	25.9157% and 31.5843%
CCS(=O)(=O)Nc1ccc(Oc2ccc(F)cc2F)c(-c2cn(C)c(=O)c3[nH]ccc23)c1 [MIVEBRESIB]	39.7622% and 88.1777%	36.307% and 74.642%			15.7549% and 20.0077%	18.5163% and 23.3766%
COc1cc2ncn(-c3cc(OCc4ccccc4C(F)(F)F)c(C(N)=O)s3)c2cc1OC [GW843682X]		21.0036% and 58.1504%			19.8463% and 25.1831%	19.142% and 23.8097%
CN1CCN(Cc2ccc(Nc3ncc(Cl)c(Nc4ccccc4S(=O)(=O)N(C)C)n3)cc2)CC1 [DUBERMATINIB]			1.098% and 2.141%	1% and 3.825%	4.849% and 7.106%	5.761% and 10.5011%
CCN(CCO)CCCOc1ccc2c(Nc3cc(CC(=O)Nc4cccc(F)c4)[nH]n3)ncnc2c1 [DEFOSBARASERTIB]	70.1574% and 72.5399%	94.5203% and 86.7079%			28.5576% and 26.4792%	25.188% and 21.7278%
CC[C@@H]1C(=O)N(C)c2cnc(Nc3ccc(C(=O)NC4CCN(C)CC4)cc3OC)nc2N1C1CCCC1 [BI-2536]	25.994% and 61.8815%	31.9179% and 66.7866%			16.4106% and 42.6367%	20.1367% and 38.0631%

SMILES	Cell Viability (Colon cancer organoid [1]; Replication number 1)	Cell Viability (Colon cancer organoid [1]; Replication number 2)	Cell Viability (Colon cancer organoid [2]; Replication number 1)	Cell Viability (Colon cancer organoid [2]; Replication number 2)	Cell Viability (Colon cancer organoid [3]; Replication number 1)	Cell Viability (Colon cancer organoid [3]; Replication number 2)
COc1cc(Nc2ncc3c(n2)-c2ccc(Cl)cc2C(c2c(F)cccc2OC)=NC3)ccc1C(=O)O [ALISERTIB]	99.741% and 113.91%	76.2077% and 81.6074%			29.1632% and 19.7233%	34.5212% and 21.703%
COc1cc(Nc2ccnc3ccc(Br)cc23)cc(OC)c1OC				5.197% and 15.2001%	33.1055% and 56.4229%	29.2651% and 46.0292%
CCN1CCN(c2ccc(Nc3cc(N(C)C(=O)Nc4c(Cl)c(OC)cc(OC)c4Cl)ncn3)cc2)CC1 [INFIGRATINIB]	70.5365% and 84.7387%	76.3419% and 87.5135%			23.1721% and 22.7147%	19.8415% and 27.805%
CN(C)CC#Cc1ccc(OCCCc2sc(N3CCc4cccc(C(=O)Nc5nc6ccccc6s5)c4C3)nc2C(=O)O)c(F)c1 [A-1155463]	47.3935% and 102.037%	50.6709% and 99.4222%	0.4141% and 9.206%	0.1987% and 7.04%		
CCCCN(CCCC)C(=O)CN1C[C@@H](c2cc(OC)c3c(c2)OCO3)[C@H](C(=O)O)[C@H]1CC(C)(C)CCC.Cl	63.1584% and 74.5149%	47.1745% and 81.1225%			42.4098% and 26.0419%	31.2719% and 16.5316%
Cn1cc(-c2[nH]c3cc(NC(=O)[C@H](N)C4CCCCC4)cc4c3c2C=NNC4=O)cn1			9.563% and 27.3752%		70.4366% and 51.3636%	57.165% and 41.3025%
N#CC1(c2ccccn2)CCN(Cc2cc(C(=O)O)c(=O)n3ccccc23)CC1 [MSD-M1PAM]	89.7237% and 93.8523%	106.363% and 84.1264%			40.5981% and 75.2157%	57.8261% and 79.5004%
COc1c(OCCCN2CCOCC2)ccc2c1N=C(NC(=O)c1cnc(N)nc1)N1CCN=C21 [COPANLISIB]			2.47% and 7.411%	1.939% and 5.676%	12.735% and 9.949%	17.4919% and 14.9013%
Cc1cc(C)cc(C(=O)NOCCCCCC(=O)NO)c1	190.206% and 106.401%	186.718% and 91.8258%	14.9423% and 44.698%	14.9026% and 40.6267%		
Cn1cc(CNCC2CCN(c3ncc(C(=O)NO)cn3)CC2)c2ccccc21 [QUISINOSTAT]					11.6805% and 13.0062%	13.8403% and 11.4602%
CCCCNc1ncc(-c2ccc(CN3CCOCC3)cn2)c(N[C@H]2CC[C@H](O)CC2)n1	74.2042% and 87.3045%	78.7125% and 74.949%			13.1667% and 26.0723%	15.6613% and 21.4116%
C=CC(=O)N1CCC([C@@H]2CCNc3c(C(N)=O)c(-c4ccc(Oc5ccccc5)cc4)nn32)CC1 [ZANUBRUTINIB]	87.382% and 84.1812%	88.1261% and 101.331%			34.0987% and 32.6632%	34.2694% and 25.3214%
CC(C)[C@H](C(=O)Nc1ccc(C(=O)NO)cc1)c1ccccc1 [AR-42]	145.989% and 67.015%	137.871% and 83.2339%		8.903% and 23.7546%		
C[C@@H](Oc1cc(-n2cnc3ccc(CN4CCN(C)CC4)cc32)sc1C(N)=O)c1ccccc1C(F)(F)F [GSK-461364]	31.4353% and 81.9512%				31.4361% and 40.8914%	27.3036% and 34.2838%
CC(=O)NCC(=O)N1[C@@H]2CC[C@H]1c1ccc(Nc3ncc(C(F)(F)F)c(NC4CCC4)n3)cc12 [PF-03814735]	48.6382% and 56.6718%	62.4502% and 65.7393%				33.7645% and 14.7244%
COc1ccc(Oc2cc(NCCC(F)(F)F)c3ncc(-c4ccc(C(=O)NC5CC5)c(C)c4)n3n2)c(F)c1F [BAY-1217389]	50.4052% and 66.3415%	55.0801% and 82.9075%			16.1792% and 31.9152%	23.535% and 27.535%
